Measurements published in article doi:10.1101/2020.03.02.973636v3 (biorxiv, 2020).

Tests used:
HDAC2 [1] = molecular target: T1, HDAC2 (Homo sapiens, UniProt Q92769); test: biolayer interferometry, […] global fit; type: binding
HDAC8 [2] = molecular target: T2, HDAC8 (Homo sapiens, UniProt Q9BY41); test: RapidFire mass spectrometry deacetylase assay; type: biochemical
T2 sequence (Q9BY41 1-377): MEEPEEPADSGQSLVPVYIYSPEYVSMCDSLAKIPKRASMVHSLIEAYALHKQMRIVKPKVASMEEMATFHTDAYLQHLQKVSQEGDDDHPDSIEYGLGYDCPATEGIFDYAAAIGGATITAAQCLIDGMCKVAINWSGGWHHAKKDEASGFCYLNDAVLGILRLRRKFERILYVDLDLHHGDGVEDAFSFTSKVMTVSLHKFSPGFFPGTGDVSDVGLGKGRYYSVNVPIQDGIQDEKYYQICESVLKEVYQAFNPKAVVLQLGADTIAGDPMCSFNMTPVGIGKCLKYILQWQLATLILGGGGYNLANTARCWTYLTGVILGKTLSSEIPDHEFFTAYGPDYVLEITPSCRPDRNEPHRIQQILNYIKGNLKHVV

HDAC8 [3] = molecular target: T2, HDAC8; test: biolayer interferometry, […] global fit; type: binding
HDAC1 [4] = molecular target: T3, HDAC1 (Homo sapiens, UniProt Q13547); test: biolayer interferometry, […] global fit; type: binding
HDAC1 [5] = molecular target: T3, HDAC1; test: biochemical; conditions: read-out: ka (1/Ms)
HDAC2 [6] = molecular target: T1, HDAC2; test: biochemical; conditions: read-out: ka (1/Ms)
HDAC8 [7] = molecular target: T2, HDAC8; test: biochemical; conditions: read-out: ka (1/Ms)
HDAC1 [8] = molecular target: T3, HDAC1; test: biochemical; conditions: read-out: kdis (1/s)
HDAC8 [9] = molecular target: T2, HDAC8; test: biochemical; conditions: read-out: kdis (1/s)
HDAC2 [10] = molecular target: T1, HDAC2; test: biochemical; conditions: read-out: kdis (1/s)
HDAC1 [11] = molecular target: T3, HDAC1; test: biochemical

T3 sequence (Q13547 whole entry): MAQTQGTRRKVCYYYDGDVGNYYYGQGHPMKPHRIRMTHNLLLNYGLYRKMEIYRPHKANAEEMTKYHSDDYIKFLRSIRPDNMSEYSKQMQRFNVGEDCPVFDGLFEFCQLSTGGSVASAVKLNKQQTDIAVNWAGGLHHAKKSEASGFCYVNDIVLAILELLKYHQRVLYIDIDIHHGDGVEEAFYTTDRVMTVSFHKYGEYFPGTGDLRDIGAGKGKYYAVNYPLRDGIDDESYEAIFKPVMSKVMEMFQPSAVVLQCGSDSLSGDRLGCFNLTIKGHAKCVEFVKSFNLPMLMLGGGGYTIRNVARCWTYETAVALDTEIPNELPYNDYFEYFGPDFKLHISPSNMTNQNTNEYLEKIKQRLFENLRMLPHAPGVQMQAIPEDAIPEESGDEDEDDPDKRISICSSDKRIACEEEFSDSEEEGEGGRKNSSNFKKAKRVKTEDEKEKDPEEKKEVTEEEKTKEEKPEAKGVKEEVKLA
T1 sequence (Q92769 whole entry): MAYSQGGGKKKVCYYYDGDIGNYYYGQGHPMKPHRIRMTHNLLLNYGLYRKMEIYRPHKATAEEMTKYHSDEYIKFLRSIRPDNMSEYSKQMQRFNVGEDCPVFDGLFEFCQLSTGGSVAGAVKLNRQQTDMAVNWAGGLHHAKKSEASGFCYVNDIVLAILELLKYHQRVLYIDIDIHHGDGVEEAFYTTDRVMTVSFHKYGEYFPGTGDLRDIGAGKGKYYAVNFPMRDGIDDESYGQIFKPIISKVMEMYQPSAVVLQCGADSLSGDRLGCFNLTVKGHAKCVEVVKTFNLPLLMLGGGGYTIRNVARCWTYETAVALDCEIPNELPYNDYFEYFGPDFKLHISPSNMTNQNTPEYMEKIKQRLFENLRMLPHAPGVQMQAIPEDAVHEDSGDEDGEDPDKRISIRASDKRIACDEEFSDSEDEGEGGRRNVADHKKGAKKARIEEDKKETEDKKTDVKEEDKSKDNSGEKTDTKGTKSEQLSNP

Structure (SMILES): O=C(c1cc(O)c(O)c(O)c1)c1ccc(O)c(O)c1O [Exifone, 2,3,3’,4,4’,5’-hexahydroxybenzophenone]
- Kd (HDAC2 [1]): 142.8 ± 1 nM
- EC50 (HDAC8 [2]): 270 nM
- Kd (HDAC8 [3]): 257.9 ± 1.7 nM
- Kd (HDAC1 [4]): 94.9 ± 0.8 nM
- kon (HDAC1 [5]): 15500 M⁻¹ s⁻¹
- kon (HDAC2 [6]): 8740 M⁻¹ s⁻¹
- kon (HDAC8 [7]): 5050 M⁻¹ s⁻¹
- koff (HDAC1 [8]): 0.00134 s⁻¹
- koff (HDAC8 [9]): 0.0013 s⁻¹
- koff (HDAC2 [10]): 0.00125 s⁻¹
- EC50 (HDAC1 [11]): 160 nM
